Reference: patent US7994140B2, “Classes of compounds that interact with GPCRs” (Alchemia Limited, priority 2002, dated 2011)

Legend:
MC4 = target: T1, MC4 (Homo sapiens, UniProt P32245); test: GPCR radioligand binding (RLB) assay, melanocortin MC4, [125I]NDP-αMSH; details: 10 micromolar; Example Library 4
T1 construct: purchased Perkin Elmer BioSignal; host or cells: HEK 293
Outline: (§1)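 Competition binding against radioligand ([125I]NDP-αMSH for MC4, [125I]SST-14 for SST5) on membranes of HEK 293 cells carrying the human receptor; buffer and incubation time optimized per receptor. Filtration through 0.5% PEI-treated glass fiber, washing, then scintillation counting.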

SST5 = target: T2, SST5 (Homo sapiens, UniProt P35346); test: GPCR radioligand binding (RLB) assay, somatostatin SST5, [125I]SST-14; details: 10 micromolar; Example Library 4
T2 construct: purchased Perkin Elmer BioSignal; host or cells: HEK 293
Outline: as §1

T2 sequence (P35346 whole entry): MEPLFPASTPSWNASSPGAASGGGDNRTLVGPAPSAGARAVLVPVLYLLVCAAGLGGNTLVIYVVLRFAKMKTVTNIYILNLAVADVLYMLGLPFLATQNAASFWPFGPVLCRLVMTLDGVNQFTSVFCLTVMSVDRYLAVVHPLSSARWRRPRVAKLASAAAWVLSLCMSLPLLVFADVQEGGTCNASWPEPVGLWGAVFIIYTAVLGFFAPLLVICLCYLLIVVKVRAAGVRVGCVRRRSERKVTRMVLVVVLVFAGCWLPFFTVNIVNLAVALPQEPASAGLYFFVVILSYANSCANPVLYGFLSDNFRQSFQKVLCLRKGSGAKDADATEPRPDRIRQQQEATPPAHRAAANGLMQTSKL
T1 sequence (P32245 whole entry): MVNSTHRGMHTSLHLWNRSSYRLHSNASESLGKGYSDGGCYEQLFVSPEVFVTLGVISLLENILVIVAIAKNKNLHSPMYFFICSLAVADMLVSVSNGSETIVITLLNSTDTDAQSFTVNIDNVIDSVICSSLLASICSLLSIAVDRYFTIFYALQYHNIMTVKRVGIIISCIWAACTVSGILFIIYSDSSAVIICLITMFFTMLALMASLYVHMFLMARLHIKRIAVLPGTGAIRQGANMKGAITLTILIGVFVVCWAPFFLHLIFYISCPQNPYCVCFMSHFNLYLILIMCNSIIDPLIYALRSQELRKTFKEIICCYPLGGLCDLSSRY

Structure (SMILES): COCC1OC(OCc2ccc(Cl)cc2)C(NC(=O)CCCNC(=N)N)C(OCc2ccc(-c3ccccc3)cc2)C1O (stereo not drawn) [Compound 253]
- MC4 inhibition at 10 micromolar (MC4): + (Indicates inhibition greater than . . . 50%)
- SSTS inhibition at 10 micromolar (SST5): + (Indicates inhibition greater than . . . 50%)

Structure (SMILES): COCC1OC(OCc2ccc(Cl)cc2)C(NC(=O)CN)C(OCc2ccc3ccccc3c2)C1O (stereo not drawn) [Compound 254]
- MC4 inhibition at 10 micromolar (MC4): + (Indicates inhibition greater than . . . 50%)
- SSTS inhibition at 10 micromolar (SST5): + (Indicates inhibition greater than . . . 50%)

Structure (SMILES): COCC1OC(OCc2ccc(Cl)cc2)C(NC(=O)CNC(=N)N)C(OCc2ccc3ccccc3c2)C1O (stereo not drawn) [Compound 255]
- MC4 inhibition at 10 micromolar (MC4): + (Indicates inhibition greater than . . . 50%)
- SSTS inhibition at 10 micromolar (SST5): + (Indicates inhibition greater than . . . 50%)

Structure (SMILES): COCC1OC(OCc2ccc(Cl)cc2)C(NC(=O)CCN)C(OCc2ccc3ccccc3c2)C1O (stereo not drawn) [Compound 256]
- MC4 inhibition at 10 micromolar (MC4): + (Indicates inhibition greater than . . . 50%)
- SSTS inhibition at 10 micromolar (SST5): + (Indicates inhibition greater than . . . 50%)

Structure (SMILES): COCC1OC(OCc2ccc(Cl)cc2)C(NC(=O)CCNC(=N)N)C(OCc2ccc3ccccc3c2)C1O (stereo not drawn) [Compound 257]
- MC4 inhibition at 10 micromolar (MC4): + (Indicates inhibition greater than . . . 50%)
- SSTS inhibition at 10 micromolar (SST5): + (Indicates inhibition greater than . . . 50%)

Structure (SMILES): COCC1OC(OCc2ccc(Cl)cc2)C(NC(=O)CCCN)C(OCc2ccc3ccccc3c2)C1O (stereo not drawn) [Compound 258]
- MC4 inhibition at 10 micromolar (MC4): + (Indicates inhibition greater than . . . 50%)
- SSTS inhibition at 10 micromolar (SST5): + (Indicates inhibition greater than . . . 50%)

Structure (SMILES): COCC1OC(OCc2ccc(Cl)cc2)C(NC(=O)CCCNC(=N)N)C(OCc2ccc3ccccc3c2)C1O (stereo not drawn) [Compound 259]
- MC4 inhibition at 10 micromolar (MC4): + (Indicates inhibition greater than . . . 50%)
- SSTS inhibition at 10 micromolar (SST5): + (Indicates inhibition greater than . . . 50%)

Structure (SMILES): COCC1OC(OCCc2ccccc2)C(NC(=O)CCNC(=N)N)C(OCc2ccccc2)C1O (stereo not drawn) [Compound 263]
- MC4 inhibition at 10 micromolar (MC4): + (Indicates inhibition greater than . . . 50%)
- SSTS inhibition at 10 micromolar (SST5): + (Indicates inhibition greater than . . . 50%)

Structure (SMILES): COCC1OC(OCCc2ccccc2)C(NC(=O)CCCNC(=N)N)C(OCc2ccccc2)C1O (stereo not drawn) [Compound 265]
- MC4 inhibition at 10 micromolar (MC4): + (Indicates inhibition greater than . . . 50%)
- SSTS inhibition at 10 micromolar (SST5): + (Indicates inhibition greater than . . . 50%)

Structure (SMILES): COCC1OC(OCCc2ccccc2)C(NC(=O)CNC(=N)N)C(OCc2ccc(Cl)cc2)C1O (stereo not drawn) [Compound 267]
- MC4 inhibition at 10 micromolar (MC4): + (Indicates inhibition greater than . . . 50%)
- SSTS inhibition at 10 micromolar (SST5): + (Indicates inhibition greater than . . . 50%)

Structure (SMILES): COCC1OC(OCCc2ccccc2)C(NC(=O)CCN)C(OCc2ccc(Cl)cc2)C1O (stereo not drawn) [Compound 268]
- MC4 inhibition at 10 micromolar (MC4): + (Indicates inhibition greater than . . . 50%)
- SSTS inhibition at 10 micromolar (SST5): + (Indicates inhibition greater than . . . 50%)

Structure (SMILES): COCC1OC(OCCc2ccccc2)C(NC(=O)CCNC(=N)N)C(OCc2ccc(Cl)cc2)C1O (stereo not drawn) [Compound 269]
- MC4 inhibition at 10 micromolar (MC4): + (Indicates inhibition greater than . . . 50%)
- SSTS inhibition at 10 micromolar (SST5): + (Indicates inhibition greater than . . . 50%)

Structure (SMILES): COCC1OC(OCCc2ccccc2)C(NC(=O)CCCN)C(OCc2ccc(Cl)cc2)C1O (stereo not drawn) [Compound 270]
- MC4 inhibition at 10 micromolar (MC4): + (Indicates inhibition greater than . . . 50%)
- SSTS inhibition at 10 micromolar (SST5): + (Indicates inhibition greater than . . . 50%)

Structure (SMILES): COCC1OC(OCCc2ccccc2)C(NC(=O)CCCNC(=N)N)C(OCc2ccc(Cl)cc2)C1O (stereo not drawn) [Compound 271]
- MC4 inhibition at 10 micromolar (MC4): + (Indicates inhibition greater than . . . 50%)
- SSTS inhibition at 10 micromolar (SST5): + (Indicates inhibition greater than . . . 50%)

Structure (SMILES): COCC1OC(OCCc2ccccc2)C(NC(=O)CN)C(OCc2ccc(-c3ccccc3)cc2)C1O (stereo not drawn) [Compound 272]
- MC4 inhibition at 10 micromolar (MC4): + (Indicates inhibition greater than . . . 50%)
- SSTS inhibition at 10 micromolar (SST5): + (Indicates inhibition greater than . . . 50%)
